# Measured values: US20230181556A1, “USE OF PSYCHOTROPIC DRUGS FOR THE TREATMENT OF CORONAVIRUS INFECTIONS” (priority 2020, published 2023)
# “Also recorded” adds a separate entry of the source.
# Key:
# Vero-E6 cells = assay: cytotoxicity in mock infected cells; type: cell-based; conditions: same experiment (10 μM, 5 μM and 2 μM)
# Protocol: One day prior to the assay, Vero-E6 cells (ATCC® CRL-1586) were plated in a 96-wells flat bottom tissue culture treated plate at a density of 2×10^4 cells/well. On the day of the assay, Vero-E6 cells were pre-treated with the different concentration (i.e. 10 μM, 5 μM and 2 μM) of the indicated drugs diluted in Dulbecco's Modified Eagles Medium (DMEM). After 1 h, the cells were infected with 50 μl of a viral inoculum at 1×10^3 TCID50/ml and incubated for 2 h at 37° C. to allow infection. Then, the virus-drug mixture was removed, cells were rinsed 3 times with PBS and were further cultured with fresh drug-containing medium (DMEM 5% FBS) for 3 days until microscopic examination was performed. Cytotoxicity of the tested drugs were determined in the same experiment in mock infected cells. The half maximal inhibitory concentration (IC50) were analyzed by non-linear regression using a four-parameter dosage-response variable slope model with the GraphPad Prism 8.0.2 software (GraphPad Software, USA).
# [1] = tested on: viruses as listed per drug; conditions: virus or effect named in the literature; cited from earlier work
# phospholipidosis = conditions: cited from earlier work
# [2] = under 20 μM concentrations; Hou et al.; cited from earlier work
# [3] = molecular target: spike protein-ACE2 interaction (Homo sapiens, UniProt Q9BYF1); conditions: Hou et al., Chemico-Biological Interactions 338 (2021) 109420; cited from earlier work
# Sequence of spike protein-ACE2 interaction (Q9BYF1 18-805): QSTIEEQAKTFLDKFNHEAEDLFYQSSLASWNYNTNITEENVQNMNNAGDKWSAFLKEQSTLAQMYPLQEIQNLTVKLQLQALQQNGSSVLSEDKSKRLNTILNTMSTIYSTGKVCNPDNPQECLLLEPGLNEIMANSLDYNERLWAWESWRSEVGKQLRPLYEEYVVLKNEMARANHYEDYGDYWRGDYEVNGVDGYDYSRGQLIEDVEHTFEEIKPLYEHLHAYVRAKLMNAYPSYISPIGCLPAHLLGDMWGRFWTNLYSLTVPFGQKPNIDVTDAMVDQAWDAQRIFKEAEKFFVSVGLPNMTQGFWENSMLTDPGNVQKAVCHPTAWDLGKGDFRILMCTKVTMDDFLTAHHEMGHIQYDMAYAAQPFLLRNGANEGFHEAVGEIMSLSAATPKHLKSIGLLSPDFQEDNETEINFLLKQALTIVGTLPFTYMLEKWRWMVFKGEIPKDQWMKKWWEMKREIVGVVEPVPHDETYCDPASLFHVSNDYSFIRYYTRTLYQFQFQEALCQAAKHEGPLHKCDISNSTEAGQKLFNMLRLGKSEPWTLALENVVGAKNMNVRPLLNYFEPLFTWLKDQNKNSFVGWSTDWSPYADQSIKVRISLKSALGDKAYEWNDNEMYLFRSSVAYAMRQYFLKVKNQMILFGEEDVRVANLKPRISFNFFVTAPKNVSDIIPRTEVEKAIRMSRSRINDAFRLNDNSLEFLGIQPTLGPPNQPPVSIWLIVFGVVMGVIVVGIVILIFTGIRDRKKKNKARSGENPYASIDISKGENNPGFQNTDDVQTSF
Compound,Examples of published in vitro antiviral activity [1],also measured
CN1CCCC(n2nc(Cc3ccc(Cl)cc3)c3ccccc3c2=O)CC1 (stereo not drawn) [Azelastine],,Cytotoxicity (Vero-E6 cells): not found to be cytotoxic
O=C(O)COCCN1CCN(C(c2ccccc2)c2ccc(Cl)cc2)CC1 (stereo not drawn) [Cetirizine],HRV (Antiviral,
CCN(CC)CCCC(C)Nc1ccnc2cc(Cl)ccc12 (stereo not drawn) [Chloroquine],"MERS, SARS,; also recorded: Filovirus","PLD, known (phospholipidosis): PLD compound"
CN(C)CCOC(C)(c1ccccc1)c1ccc(Cl)cc1 (stereo not drawn) [Chlorphenoxamine],"MERS, SARS",
CN(C)CCCN1c2ccccc2Sc2ccc(Cl)cc21 [Chlorpromazine],"MERS, SARS","PLD, known (phospholipidosis): PLD agent"
CCN(CC)CCOc1ccc(C(=C(Cl)c2ccccc2)c2ccccc2)cc1 [Clomifene],"Ebola, HCV",
CN(C)CCCN1c2ccccc2CCc2ccc(Cl)cc21 [Clomipramine],"MERS, SARS",
Clc1ccc(C(OCCN2CCCCC2)c2ccccc2)cc1 (stereo not drawn) [Cloperastine],SARS-CoV-2,
Clc1ccc2c(c1)CCc1cccnc1C2=C1CCNCC1 [Desloratadine],,Cytotoxicity (Vero-E6 cells): not found to be cytotoxic; Cytotoxicity [2]: No cytotoxicity was observed
O=C(CCCN1CCC(O)(c2ccc(Cl)cc2)CC1)c1ccc(F)cc1 [Haloperidol],SARS-CoV-2,
CCN(CCO)CCCC(C)Nc1ccnc2cc(Cl)ccc12 (stereo not drawn) [Hydroxyl-chloroquine],SARS-Cov-2,
CCOC(=O)N1CCC(=C2c3ccc(Cl)cc3CCc3cccnc32)CC1 [Loratadine],,block of spike protein-ACE2 interaction [3]: efficient to block spike protein-ACE2 interaction; Cytotoxicity [2]: No cytotoxicity was observed
COc1ccc2[nH]cc(CCNC(C)=O)c2c1 [Melatonin],Possible roles,
CC(CN1c2ccccc2Sc2ccccc21)N(C)C (stereo not drawn) [Promethazine],Ebola (Sci Transl Med,Cytotoxicity (Vero-E6 cells): not found to be cytotoxic
CN[C@H]1CC[C@@H](c2ccc(Cl)c(Cl)c2)c2ccccc21 [Sertraline],Ebola virus; also recorded: Zika Virus; also recorded: HIV in vivo,"PLD, known (phospholipidosis): PLD compound"
